ChEMBL document CHEMBL1687748 (Antimicrob Agents Chemother, 2009)
Converted amounts (≈) assume the structure as drawn.

What was measured:
Format in all cases: functional
Bacillus anthracis [1] = test: Antimicrobial activity against toxin and capsule gene-deficient Bacillus anthracis Sterne after 24 hrs by macrobroth dilution method
Bacillus anthracis [2] = test: Growth rate constant for compound-sensitive toxin and capsule gene-deficient Bacillus anthracis Sterne in hollow-fiber pharmacodynamic infection model administered for every 24 hrs
Bacillus anthracis [3] = test: Hill constant for compound-sensitive toxin and capsule gene-deficient Bacillus anthracis Sterne in hollow-fiber pharmacodynamic infection model at 100 mg administered as continuous infusion by Bayesian method
Bacillus anthracis [4] = test: Total spore counts of toxin and capsule gene-deficient Bacillus anthracis Sterne in hollow-fiber pharmacodynamic infection model at 50 mg, qd by Bayesian method
Bacillus anthracis [5] = test: Total spore counts of toxin and capsule gene-deficient Bacillus anthracis Sterne in hollow-fiber pharmacodynamic infection model at 200 mg, qd by Bayesian method
Bacillus anthracis [6] = test: Kill rate constant for compound-sensitive toxin and capsule gene-deficient Bacillus anthracis Sterne in hollow-fiber pharmacodynamic infection model administered for every 24 hrs
Bacillus anthracis [7] = test: Hill constant for compound-sensitive toxin and capsule gene-deficient Bacillus anthracis Sterne in hollow-fiber pharmacodynamic infection model administered for every 24 hrs
Bacillus anthracis [8] = test: Total sensitive organism counts of toxin and capsule gene-deficient Bacillus anthracis Sterne in hollow-fiber pharmacodynamic infection model administered for every 24 hrs
Bacillus anthracis [9] = test: Total sensitive organism counts of toxin and capsule gene-deficient Bacillus anthracis Sterne in hollow-fiber pharmacodynamic infection model administered as continuous infusion
Bacillus anthracis [10] = test: Total spore counts of toxin and capsule gene-deficient Bacillus anthracis Sterne in hollow-fiber pharmacodynamic infection model administered as continuous infusion
Bacillus anthracis [11] = test: Growth rate constant for compound-sensitive toxin and capsule gene-deficient Bacillus anthracis Sterne in hollow-fiber pharmacodynamic infection model at 150 mg administered as continuous infusion by Bayesian method
Bacillus anthracis [12] = test: Kill rate constant for compound-sensitive toxin and capsule gene-deficient Bacillus anthracis Sterne in hollow-fiber pharmacodynamic infection model at 100 mg administered as continuous infusion by Bayesian method
Bacillus anthracis [13] = test: Kill rate constant for compound-sensitive toxin and capsule gene-deficient Bacillus anthracis Sterne in hollow-fiber pharmacodynamic infection model at 200 mg administered as continuous infusion by Bayesian method
Bacillus anthracis [14] = test: Kill rate constant for compound-sensitive toxin and capsule gene-deficient Bacillus anthracis Sterne in hollow-fiber pharmacodynamic infection model at 250 mg administered as continuous infusion by Bayesian method
Bacillus anthracis [15] = test: Hill constant for compound-sensitive toxin and capsule gene-deficient Bacillus anthracis Sterne in hollow-fiber pharmacodynamic infection model at 150 mg administered as continuous infusion by Bayesian method
Bacillus anthracis [16] = test: Hill constant for compound-sensitive toxin and capsule gene-deficient Bacillus anthracis Sterne in hollow-fiber pharmacodynamic infection model at 200 mg administered as continuous infusion by Bayesian method
Bacillus anthracis [17] = test: Hill constant for compound-sensitive toxin and capsule gene-deficient Bacillus anthracis Sterne in hollow-fiber pharmacodynamic infection model at 250 mg administered as continuous infusion by Bayesian method
Bacillus anthracis [18] = test: Growth rate constant of vegetative-phase cells going to spore phase in toxin and capsule gene-deficient Bacillus anthracis Sterne in hollow-fiber pharmacodynamic infection model at 150 mg administered as continuous infusion by Bayesian method
Bacillus anthracis [19] = test: Growth rate constant of spore-phase cells going to vegetative phase in toxin and capsule gene-deficient Bacillus anthracis Sterne in hollow-fiber pharmacodynamic infection model at 100 mg administered as continuous infusion by Bayesian method
Bacillus anthracis [20] = test: Growth rate constant of spore-phase cells going to vegetative phase in toxin and capsule gene-deficient Bacillus anthracis Sterne in hollow-fiber pharmacodynamic infection model at 150 mg administered as continuous infusion by Bayesian method
Bacillus anthracis [21] = test: Total sensitive organism counts of toxin and capsule gene-deficient Bacillus anthracis Sterne in hollow-fiber pharmacodynamic infection model at 100 mg administered as continuous infusion by Bayesian method
Bacillus anthracis [22] = test: Total sensitive organism counts of toxin and capsule gene-deficient Bacillus anthracis Sterne in hollow-fiber pharmacodynamic infection model at 150 mg administered as continuous infusion by Bayesian method
Bacillus anthracis [23] = test: Total sensitive organism counts of toxin and capsule gene-deficient Bacillus anthracis Sterne in hollow-fiber pharmacodynamic infection model at 250 mg administered as continuous infusion by Bayesian method
Bacillus anthracis [24] = test: Total spore counts of toxin and capsule gene-deficient Bacillus anthracis Sterne in hollow-fiber pharmacodynamic infection model at 100 mg administered as continuous infusion by Bayesian method
Bacillus anthracis [25] = test: Growth rate constant for compound-sensitive toxin and capsule gene-deficient Bacillus anthracis Sterne in hollow-fiber pharmacodynamic infection model at 50 mg, qd by Bayesian method
Bacillus anthracis [26] = test: Growth rate constant for compound-sensitive toxin and capsule gene-deficient Bacillus anthracis Sterne in hollow-fiber pharmacodynamic infection model at 150 mg, qd by Bayesian method
Bacillus anthracis [27] = test: Growth rate constant for compound-sensitive toxin and capsule gene-deficient Bacillus anthracis Sterne in hollow-fiber pharmacodynamic infection model at 200 mg, qd by Bayesian method
Bacillus anthracis [28] = test: Hill constant for compound-sensitive toxin and capsule gene-deficient Bacillus anthracis Sterne in hollow-fiber pharmacodynamic infection model at 100 mg, qd by Bayesian method
Bacillus anthracis [29] = test: Growth rate constant of vegetative-phase cells going to spore phase in toxin and capsule gene-deficient Bacillus anthracis Sterne in hollow-fiber pharmacodynamic infection model at 50 mg, qd by Bayesian method
Bacillus anthracis [30] = test: Growth rate constant of vegetative-phase cells going to spore phase in toxin and capsule gene-deficient Bacillus anthracis Sterne in hollow-fiber pharmacodynamic infection model at 100 mg, qd by Bayesian method
Bacillus anthracis [31] = test: Growth rate constant of vegetative-phase cells going to spore phase in toxin and capsule gene-deficient Bacillus anthracis Sterne in hollow-fiber pharmacodynamic infection model at 150 mg, qd by Bayesian method
Bacillus anthracis [32] = test: Growth rate constant of spore-phase cells going to vegetative phase in toxin and capsule gene-deficient Bacillus anthracis Sterne in hollow-fiber pharmacodynamic infection model at 100 mg, qd by Bayesian method
Bacillus anthracis [33] = test: Growth rate constant of spore-phase cells going to vegetative phase in toxin and capsule gene-deficient Bacillus anthracis Sterne in hollow-fiber pharmacodynamic infection model at 200 mg, qd by Bayesian method
Bacillus anthracis [34] = test: Total sensitive organism counts of toxin and capsule gene-deficient Bacillus anthracis Sterne in hollow-fiber pharmacodynamic infection model at 50 mg, qd by Bayesian method
Bacillus anthracis [35] = test: Total sensitive organism counts of toxin and capsule gene-deficient Bacillus anthracis Sterne in hollow-fiber pharmacodynamic infection model at 200 mg, qd by Bayesian method

## COc1c(N2C[C@@H]3CCCN[C@@H]3C2)c(F)cc2c(=O)c(C(=O)O)cn(C3CC3)c12 [MOXIFLOXACIN]
Bacillus anthracis [1]
  MIC: 0.06 µg/mL (≈ 0.149 µM)
Bacillus anthracis [2]
  Activity: 8.24 h⁻¹
Bacillus anthracis [3]
  Activity: 20.9 h⁻¹
Bacillus anthracis [4]
  CFU/ml: 1860000
Bacillus anthracis [5]
  CFU/ml: 2420000
Bacillus anthracis [6]
  Activity: 8.24 h⁻¹
Bacillus anthracis [7]
  Activity: 29.8 h⁻¹
Bacillus anthracis [8]
  CFU/ml: 41200000
Bacillus anthracis [9]
  CFU/ml: 38500000
Bacillus anthracis [10]
  CFU/ml: 1880000
Bacillus anthracis [11]
  Activity: 8.25 h⁻¹
Bacillus anthracis [12]
  Activity: 8.28 h⁻¹
Bacillus anthracis [13]
  Activity: 8.28 h⁻¹
Bacillus anthracis [14]
  Activity: 8.28 h⁻¹
Bacillus anthracis [15]
  Activity: 30 h⁻¹
Bacillus anthracis [16]
  Activity: 30 h⁻¹
Bacillus anthracis [17]
  Activity: 30 h⁻¹
Bacillus anthracis [18]
  Activity: 4.94 h⁻¹
Bacillus anthracis [19]
  Activity: 10.1 h⁻¹
Bacillus anthracis [20]
  Activity: 9.06 h⁻¹
Bacillus anthracis [21]
  CFU/ml: 20600000
Bacillus anthracis [22]
  CFU/ml: 23500000
Bacillus anthracis [23]
  CFU/ml: 21600000
Bacillus anthracis [24]
  CFU/ml: 1860000
Bacillus anthracis [25]
  Activity: 5.14 h⁻¹
Bacillus anthracis [26]
  Activity: 7.42 h⁻¹
Bacillus anthracis [27]
  Activity: 1.81 h⁻¹
Bacillus anthracis [28]
  Activity: 30 h⁻¹
Bacillus anthracis [29]
  Activity: 0.0657 h⁻¹
Bacillus anthracis [30]
  Activity: 1.38 h⁻¹
Bacillus anthracis [31]
  Activity: 0.0657 h⁻¹
Bacillus anthracis [32]
  Activity: 25.9 h⁻¹
Bacillus anthracis [33]
  Activity: 1.01 h⁻¹
Bacillus anthracis [34]
  CFU/ml: 19600000
Bacillus anthracis [35]
  CFU/ml: 53600000
